The record followed here is patent publication US20100204157A1, “USE OF A PEPTIDE AS A THERAPEUTIC AGENT” (priority 2007, published 2010).

Where no end group is shown, it is not given here.

For data set [1], the system named is HepG2-2.2.15 cells. As to the kind of experiment: Cell viability in HepG2-2.2.15 cells (dye uptake). It is filed as cell-based. Conditions: test peptide 10 micrograms per ml, dye uptake assay.
Data set [2] deals with HIV-1IIIB. As to the kind of experiment: HIV-1 antiviral assay (CPE reduction, MTS). It counts as cell-based. The note with it: peptide 10 micrograms per ml, 6 days post-infection.
Data set [3] has as its system CEM-SS cells. The experiment in a line: Cytotoxicity in CEM-SS cells (MTS). The note with it: peptide 10 micrograms per ml, MTS.
The subject of data set [4] is MRC-5 cells. Conditions: human, 6 days.
Protocol: (§1) For cytotxicity testing, MRC-5 cells were seeded at 2,500 cells/well in 96 well plates using growth medium. […] The following day, peptide were added and tested in duplicates. After a 6 days incubation period, cell viability was measured using CellTiter 96 Solution (Promega). Plates were incubated for additional 4 hours at 37° C.
A short description of data set [5]: Cell viability in HepG2-2.2.15 cells (dye uptake). It counts as cell-based. Conditions: human, HepG2-2.2.15 cells (stable line containing HBV ayw genome), test peptide 10 micrograms per ml, dye uptake assay.
In data set [6] the test system is MRSA. As to the kind of experiment: Methicillin Resistant Staphylococcus Aureus (MRSA) assay. It counts as cell-based. Conditions: MRSA growth; peptide 10 micrograms per ml; read visually.
Data set [7] has as its system Pseudomonas aeruginosa. As to the kind of experiment: Pseudomonas aeruginosa assay. It counts as cell-based. The note with it: Pseudomonas aeruginosa growth; peptide 10 micrograms per ml; read visually.
Protocol: The antibacterial assay was conducted using clear, U-bottom 96-well microtiter plates. Cation-adjusted Mueller-Hinton Broth (MHB) was used for testing Pseudomonas aeruginosa. The peptide of the invention (0.1 ml of each—10 micrograms per ml—) were dispensed into wells in duplicate. Then the wells were inoculated with 5×10^5 CFU/mL Pseudomonas aeruginosa in 0.1 ml volume. For control purposes, each plate included 4 wells containing media without bacterial inoculum and 4 wells containing medium with inoculum but without peptide. The plates were incubated for 12 h at 37° C., and read visually 18-24 hours post-incubation. Growth control of Pseudomonas aeruginosa was examined first to determine adequacy of media preparations and growth conditions. Acceptable growth is defined as ≧2 mm wide button of cells at the bottom of each sample well, or obvious turbidity in the culture supernatant. Test wells were examined and scored as positive/negative for activity. A positive score for activity is based on complete inhibition of macroscopic growth of the test Pseudomonas aeruginosa.
Data set [8] deals with Streptococcus pneumoniae. As to the kind of experiment: Streptococcus pneumoniae assay. It counts as cell-based. Conditions: Streptococcus pneumoniae growth; peptide 10 micrograms per ml; read visually.
Protocol: The antibacterial assay was conducted using clear, U-bottom 96-well microtiter plates. Cation-adjusted Mueller-Hinton Broth (MHB) was used for testing Streptococcus pneumoniae. The peptide of the invention (0.1 ml of each—10 micrograms per ml—) were dispensed into wells in duplicate. Then the wells were inoculated with 5×10^5 CFU/mL Streptococcus pneumoniae in 0.1 ml volume. For control purposes, each plate included 4 wells containing media without bacterial inoculum and 4 wells containing medium with inoculum but without peptide. The plates were incubated for 12 h at 37° C., and read visually 18-24 hours post-incubation. Growth control of Streptococcus pneumoniae was examined first to determine adequacy of media preparations and growth conditions. Acceptable growth is defined as ≧2 mm wide button of cells at the bottom of each sample well, or obvious turbidity in the culture supernatant. Test wells were examined and scored as positive/negative for activity. A positive score for activity is based on complete inhibition of macroscopic growth of the test Streptococcus pneumoniae.
Data set [9] is described as follows: Cytotoxicity in CEM-SS cells (MTS). The note with it: human.
A short description of data set [10]: Cytotoxicity in MRC-5 cells (CellTiter 96). Conditions: human, MRC-5 cells (embryonal lung fibroblasts).
Protocol: as §1

On to `Nc1ccn([C@@H]2CS[C@H](CO)O2)c(=O)n1` [3TC, Lamivudine, reference compound], for which the “% Cell Viability” value in [1] is on record as 95.8%.

Consider `Cc1cn([C@H]2C[C@H](N=[N+]=[N-])[C@@H](CO)O2)c(=O)[nH]c1=O` [AZT, reference compound], for which the “% CPE reduction in HIV-1 infected CEM-SS cells” value in data set [2] was 99%. In data set [3], the “% Cell Viability” value came to 97%.

Take `Nc1nc(O)c2ncn(COC(CO)CO)c2n1` [Ganciclovir]: the “% Cell Viability” value in data set [4] came to 100%.

In turn, FFVAP [Phe-Phe-Val-Ala-Pro] came in with a viability at 144 h, 10 micrograms per ml in data set [5] of 98.1%. In addition, the “% inhibition” value in [6], in data set [7] and in data set [8] was 0.0% each time. Besides, in data set [9], the viability at 10 micrograms per ml came out at 100%. This compound displayed a viability at 144 h in [10] of 100%.
